Measurements: PubChem BioAssay AID2060617 (Molecular Pharmacology Branch, DTP, NCI, 2025)
Where “and” joins values, the source holds several entries; their conditions need not be identical. Equal values may be shown once.

System: 485368-065-R4-J2-PDC spheroids with HUVEC/MSC, viability
Assay: Anticancer human tumor 485368-065-R4-J2-PDC patient-derived pancreatic carcinoma cell line growth inhibition [CLK]
Conditions: for viability, T/C: stronger effect = lower value
Method in brief: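 Multi-cell-type spheroids combined patient-derived tumor cells with HUVEC endothelial cells and human mesenchymal stem cells. Paired agents were dosed in half-log steps down from about clinical Cmax, or from 10 microM where Cmax was unknown.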

[1] = curve of first compound, second compound 0.0316 µM
[2] = curve of first compound, second compound 0.1 µM
[3] = curve of first compound, second compound 0.316 µM
[4] = curve of first compound, second compound 1 µM
[5] = curve of first compound, second compound 3.16 µM
[6] = curve of first compound, second compound 10 µM
[7] = second compound 0.0316 µM, first compound 0.0316 µM
[8] = second compound 0.0316 µM, first compound 0.1 µM
[9] = second compound 0.0316 µM, first compound 0.316 µM
[10] = second compound 0.0316 µM, first compound 1 µM
[11] = second compound 0.0316 µM, first compound 3.16 µM
[12] = second compound 0.0316 µM, first compound 10 µM
[13] = second compound 0.1 µM, first compound 0.0316 µM
[14] = second compound 0.1 µM, first compound 0.1 µM
[15] = second compound 0.1 µM, first compound 0.316 µM
[16] = second compound 0.1 µM, first compound 1 µM
[17] = second compound 0.1 µM, first compound 3.16 µM
[18] = second compound 0.1 µM, first compound 10 µM
[19] = second compound 0.316 µM, first compound 0.0316 µM
[20] = second compound 0.316 µM, first compound 0.1 µM
[21] = second compound 0.316 µM, first compound 0.316 µM
[22] = second compound 0.316 µM, first compound 1 µM
[23] = second compound 0.316 µM, first compound 3.16 µM
[24] = second compound 0.316 µM, first compound 10 µM
[25] = second compound 1 µM, first compound 0.0316 µM
[26] = second compound 1 µM, first compound 0.1 µM
[27] = second compound 1 µM, first compound 0.316 µM
[28] = second compound 1 µM, first compound 1 µM
[29] = second compound 1 µM, first compound 3.16 µM
[30] = second compound 1 µM, first compound 10 µM
[31] = second compound 3.16 µM, first compound 0.0316 µM
[32] = second compound 3.16 µM, first compound 0.1 µM
[33] = second compound 3.16 µM, first compound 0.316 µM
[34] = second compound 3.16 µM, first compound 1 µM
[35] = second compound 3.16 µM, first compound 3.16 µM
[36] = second compound 3.16 µM, first compound 10 µM
[37] = second compound 10 µM, first compound 0.0316 µM
[38] = second compound 10 µM, first compound 0.1 µM
[39] = second compound 10 µM, first compound 0.316 µM
[40] = second compound 10 µM, first compound 1 µM
[41] = second compound 10 µM, first compound 3.16 µM
[42] = second compound 10 µM, first compound 10 µM
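Further: spheroids exposed to compounds for seven days.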
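Wherever viability, T/C is given: 100% = DMSO vehicle control wells.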

CC(=O)O[C@H]1C(=O)[C@@]2(C)[C@H]([C@H](OC(=O)c3ccccc3)[C@]3(O)C[C@H](OC(=O)[C@H](O)[C@@H](NC(=O)c4ccccc4)c4ccccc4)C(C)=C1C3(C)C)[C@]1(OC(C)=O)CO[C@@H]1C[C@@H]2O
viability, T/C (compound 0.0316 µM): 58.2% and 59.8%
viability, T/C (compound 0.1 µM): 50.1% and 56.1%
viability, T/C (compound 0.316 µM): 49% and 52.2%
viability, T/C (compound 1 µM): 48.5% and 43.6%
viability, T/C (compound 3.16 µM): 49.9% and 52.5%
viability, T/C (compound 10 µM): 48.8% and 65.5%

CC(CO)NC(=O)c1cc(-c2ccc(Cl)cc2)nn(-c2cnn(C)c2)c1=O (configuration not stated)
viability, T/C (compound 0.0316 µM): 86.9% and 92.3%
viability, T/C (compound 0.1 µM): 92.6% and 87.3%
viability, T/C (compound 0.316 µM): 97.4% and 89.7%
viability, T/C (compound 1 µM): 100% and 101%
viability, T/C (compound 3.16 µM): 107% and 110%
viability, T/C (compound 10 µM): 105% and 104%
IC50 (curve of compound): > 10 µM

CCCS(=O)(=O)Nc1ccc(F)c(C(=O)c2c[nH]c3ncc(-c4ccc(Cl)cc4)cc23)c1F + CNC(=O)c1ccc(Nc2nc(OC3CCCC3)c3c(-c4ccc5nc(C)oc5c4)c[nH]c3n2)c(OC)c1
IC50 [1]: > 10 µM
IC50 [2]: > 10 µM
IC50 [3]: > 10 µM
IC50 [4]: > 10 µM
IC50 [5]: > 10 µM
IC50 [6]: > 10 µM
viability, T/C [7]: 92.6%
viability, T/C [8]: 95.1%
viability, T/C [9]: 93.2%
viability, T/C [10]: 97.5%
viability, T/C [11]: 91.6%
viability, T/C [12]: 114%
viability, T/C [13]: 100%
viability, T/C [14]: 99.5%
viability, T/C [15]: 95.9%
viability, T/C [16]: 90.1%
viability, T/C [17]: 98.3%
viability, T/C [18]: 112%
viability, T/C [19]: 90%
viability, T/C [20]: 84.8%
viability, T/C [21]: 87.9%
viability, T/C [22]: 85.4%
viability, T/C [23]: 95.9%
viability, T/C [24]: 104%
viability, T/C [25]: 83.5%
viability, T/C [26]: 80.7%
viability, T/C [27]: 85.7%
viability, T/C [28]: 78.9%
viability, T/C [29]: 89.7%
viability, T/C [30]: 105%
viability, T/C [31]: 70.7%
viability, T/C [32]: 75.5%
viability, T/C [33]: 85.4%
viability, T/C [34]: 78.9%
viability, T/C [35]: 95.2%
viability, T/C [36]: 99.5%
viability, T/C [37]: 75.7%
viability, T/C [38]: 73.6%
viability, T/C [39]: 86.7%
viability, T/C [40]: 78.9%
viability, T/C [41]: 90.1%
viability, T/C [42]: 93.4%

C=CC(=O)N1CCN(c2nc(=O)n(-c3c(C)ccnc3C(C)C)c3nc(-c4c(O)cccc4F)c(F)cc23)C(C)C1 (configuration not stated) + CNC(=O)c1ccc(Nc2nc(OC3CCCC3)c3c(-c4ccc5nc(C)oc5c4)c[nH]c3n2)c(OC)c1
IC50 [1]: > 10 µM
IC50 [2]: > 10 µM
IC50 [3]: > 10 µM
IC50 [4]: > 10 µM
IC50 [5]: > 10 µM
IC50 [6]: > 10 µM
viability, T/C [7]: 94%
viability, T/C [8]: 110%
viability, T/C [9]: 89.5%
viability, T/C [10]: 103%
viability, T/C [11]: 93.3%
viability, T/C [12]: 98.9%
viability, T/C [13]: 105%
viability, T/C [14]: 98.5%
viability, T/C [15]: 99.8%
viability, T/C [16]: 109%
viability, T/C [17]: 95.9%
viability, T/C [18]: 88.8%
viability, T/C [19]: 82%
viability, T/C [20]: 92.5%
viability, T/C [21]: 92.2%
viability, T/C [22]: 95%
viability, T/C [23]: 80.8%
viability, T/C [24]: 72.8%
viability, T/C [25]: 85%
viability, T/C [26]: 87.9%
viability, T/C [27]: 79.4%
viability, T/C [28]: 82.8%
viability, T/C [29]: 78.1%
viability, T/C [30]: 75.7%
viability, T/C [31]: 76.7%
viability, T/C [32]: 69.7%
viability, T/C [33]: 72.2%
viability, T/C [34]: 73.8%
viability, T/C [35]: 77.5%
viability, T/C [36]: 69.8%
viability, T/C [37]: 77.8%
viability, T/C [38]: 76.4%
viability, T/C [39]: 75%
viability, T/C [40]: 74.4%
viability, T/C [41]: 74.2%
viability, T/C [42]: 67.4%
